From patent publication US8710065B2, “Tricyclic inhibitors of kinases” (AbbVie Inc., priority 2011, dated 2014) come the findings set out here.

One may read the Ki as a dissociation constant, usually derived from enzyme kinetics or from competition with a known ligand.

This assay deals with T1, GST-tagged-Wee1 kinase (Homo sapiens, UniProt P30291).
T1 construct: purchased Carnabio (Carna Biosciences) 05-177
T1 sequence (P30291 whole entry): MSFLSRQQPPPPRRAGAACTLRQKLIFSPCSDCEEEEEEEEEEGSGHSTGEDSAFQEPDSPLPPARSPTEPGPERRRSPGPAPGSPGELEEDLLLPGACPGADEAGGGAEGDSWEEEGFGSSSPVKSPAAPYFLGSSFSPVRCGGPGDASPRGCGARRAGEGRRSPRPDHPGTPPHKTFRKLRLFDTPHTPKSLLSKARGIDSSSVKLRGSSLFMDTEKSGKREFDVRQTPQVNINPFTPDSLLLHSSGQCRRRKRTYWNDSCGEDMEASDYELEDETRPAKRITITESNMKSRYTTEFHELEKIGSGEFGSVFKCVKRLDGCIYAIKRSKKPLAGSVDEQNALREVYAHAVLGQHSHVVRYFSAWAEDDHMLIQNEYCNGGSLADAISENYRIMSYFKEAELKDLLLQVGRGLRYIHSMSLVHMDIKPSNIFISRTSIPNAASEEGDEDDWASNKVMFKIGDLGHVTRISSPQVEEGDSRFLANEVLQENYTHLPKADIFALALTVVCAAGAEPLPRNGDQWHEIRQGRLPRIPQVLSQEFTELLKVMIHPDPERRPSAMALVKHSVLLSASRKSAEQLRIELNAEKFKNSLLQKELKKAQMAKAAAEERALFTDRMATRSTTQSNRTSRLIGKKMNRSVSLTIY
In words: Wee1 time-resolved fluorescence equilibrium binding assay (displacement of Oregon Green-labeled ATP-competitive kinase probe). Particulars: read-out: Wee-1 inhibition (Ki). The procedure, abridged: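 Time-resolved fluorescence equilibrium binding with GST-Wee1, measuring displacement of a rapidly reversible Oregon Green-labelled ATP-competitive probe by competitive inhibitors; values reported as Ki.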
On to `O=c1c2cnc(Nc3ccc(C4CCCCN4)cc3)nc2n2ccnc2n1-c1ccccc1Cl` (stereo not drawn) [Example 70, 6-(2-chlorophenyl)-2-{[4-(piperidin-2-yl)phenyl]amino}imidazo[1,2-a]pyrimido[5,4-e]pyrimidin-5(6H)-one], for which the Ki is under 10 nM.

`CC(C)N1CCN(c2ccc(Nc3ncc4c(=O)n(-c5c(Cl)cccc5Cl)c5nccn5c4n3)cc2)CC1` [Example 115, 6-(2,6-dichlorophenyl)-2-({4-[4-(propan-2-yl)piperazin-1-yl]phenyl}amino)imidazo[1,2-a]pyrimido[5,4-e]pyrimidin-5(6H)-one]: the Ki is under 10 nM.

`O=c1c2cnc(Nc3ccc(NCCCn4ccnc4)cc3)nc2n2ccnc2n1-c1ccccc1Cl` [Example 269, 6-(2-chlorophenyl)-2-[(4-{[3-(1H-imidazol-1-yl)propyl]amino}phenyl)amino]imidazo[1,2-a]pyrimido[5,4-e]pyrimidin-5(6H)-one]: the Ki is under 10 nM.

Regarding `CN1CCCC1CCNc1ccc(Nc2ncc3c(=O)n(-c4ccccc4Cl)c4nccn4c3n2)cc1` (stereo not drawn) [Example 192, 6-(2-chlorophenyl)-2-[(4-{[2-(1-methylpyrrolidin-2-yl)ethyl]amino}phenyl)amino]imidazo[1,2-a]pyrimido[5,4-e]pyrimidin-5(6H)-one], the Ki lay in the range of 10 to 100 nM.

For the compound `CN(C)CCN(C)c1ccc(Nc2ncc3c(=O)n(-c4ccccc4Cl)c4nccn4c3n2)cc1` [Example 263, 6-(2-chlorophenyl)-2-[(4-{[2-(dimethylamino)ethyl](methyl)amino}phenyl)amino]imidazo[1,2-a]pyrimido[5,4-e]pyrimidin-5(6H)-one], the inhibition constant (Ki) was under 10 nM.

`CC(=O)N1Cc2cc(Nc3ncc4c(=O)n(-c5c(Cl)cccc5Cl)c5nccn5c4n3)ccc2C2(CC2)C1` [Example 207, 2-[(2′-acetyl-2′,3′-dihydro-1′H-spiro[cyclopropane-1,4′-isoquinolin]-7′-yl)amino]-6-(2,6-dichlorophenyl)imidazo[1,2-a]pyrimido[5,4-e]pyrimidin-5(6H)-one]: the Ki is under 10 nM.

Regarding `CN1CCN(c2ccc(Nc3ncc4c(=O)n(-c5c(F)cccc5F)c5nccn5c4n3)cc2)CC1` [Example 98, 6-(2,6-difluorophenyl)-2-{[4-(4-methylpiperazin-1-yl)phenyl]amino}imidazo[1,2-a]pyrimido[5,4-e]pyrimidin-5(6H)-one], the Ki was in the range of 10 to 100 nM.

Turning to `O=c1c2cnc(Nc3ccccc3)nc2n2ccnc2n1-c1c(Cl)cccc1Cl` [Example 84, 6-(2,6-dichlorophenyl)-2-(phenylamino)imidazo[1,2-a]pyrimido[5,4-e]pyrimidin-5(6H)-one], the Ki is under 10 nM.

`O=c1c2cnc(Nc3ccc4c(c3)CNCC43CC3)nc2n2ccnc2n1-c1ccccc1Cl` [Example 90, 6-(2-chlorophenyl)-2-(2′,3′-dihydro-1′H-spiro[cyclopropane-1,4′-isoquinolin]-7′-ylamino)imidazo[1,2-a]pyrimido[5,4-e]pyrimidin-5(6H)-one]: the Ki is under 10 nM.

For the compound `CC(C)(C)C(=O)N1Cc2cc(Nc3ncc4c(=O)n(-c5c(F)cccc5Cl)c5nccn5c4n3)ccc2C2(CC2)C1` [Example 266, 6-(2-chloro-6-fluorophenyl)-2-{[2′-(2,2-dimethylpropanoyl)-2′,3′-dihydro-1′H-spiro[cyclopropane-1,4′-isoquinolin]-7′-yl]amino}imidazo[1,2-a]pyrimido[5,4-e]pyrimidin-5(6H)-one], the Ki was under 10 nM.

Take `O=c1c2cnc(Nc3ccc(OC[C@@H]4CCCN4)cc3)nc2n2ccnc2n1-c1ccccc1Cl` [Example 76, 6-(2-chlorophenyl)-2-({4-[(2S)-pyrrolidin-2-ylmethoxy]phenyl}amino)imidazo[1,2-a]pyrimido[5,4-e]pyrimidin-5(6H)-one]: the inhibitory constant (Ki) is under 10 nM.

Take `O=c1c2cnc(Nc3ccc(N4CCC5(CC4)CNC5)cc3)nc2n2ccnc2n1-c1c(Cl)cccc1Cl` [Example 288, 2-{[4-(2,7-diazaspiro[3.5]non-7-yl)phenyl]amino}-6-(2,6-dichlorophenyl)imidazo[1,2-a]pyrimido[5,4-e]pyrimidin-5(6H)-one]: the Ki was under 10 nM.
